Test results as given in article PMC4138023, “Selective HDAC Inhibition for the Disruption of Latent HIV-1 Infection” (PLoS ONE, 2014).

Key:
Assay in all cases: microfluidic mobility shift (LabChip), FAM-acetylated peptide substrate
Format in all cases: biochemical
HDAC2 = biological target: T1, HDAC2 (Homo sapiens, UniProt Q92769); settings: without preincubation; […] min, room temperature, pH […] substrate; read-out: HDAC IC50 (μM) without preincubation / HDAC2
T1 construct: purified commercial enzyme from BPS Bioscience
T1 sequence (Q92769 whole entry): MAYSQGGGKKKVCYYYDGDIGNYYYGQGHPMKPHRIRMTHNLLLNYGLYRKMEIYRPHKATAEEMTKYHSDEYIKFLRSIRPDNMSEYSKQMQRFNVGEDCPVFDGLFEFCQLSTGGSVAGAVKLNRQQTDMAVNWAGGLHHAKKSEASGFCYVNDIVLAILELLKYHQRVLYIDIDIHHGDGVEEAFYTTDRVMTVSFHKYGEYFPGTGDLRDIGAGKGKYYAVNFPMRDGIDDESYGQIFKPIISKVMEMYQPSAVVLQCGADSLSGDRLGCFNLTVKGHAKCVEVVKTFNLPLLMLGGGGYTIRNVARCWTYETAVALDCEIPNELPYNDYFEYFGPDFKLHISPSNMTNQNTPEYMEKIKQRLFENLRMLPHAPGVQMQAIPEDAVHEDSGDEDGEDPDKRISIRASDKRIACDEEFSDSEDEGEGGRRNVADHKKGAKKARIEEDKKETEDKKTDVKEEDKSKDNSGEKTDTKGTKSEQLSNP
Source text: microfluidic mobility shift (LabChip), FAM-acetylated peptide substrate on HDAC2

HDAC9 = biological target: T2, HDAC9 (Homo sapiens, UniProt Q9UKV0); settings: read-out: HDAC IC50 (μM) without preincubation / HDAC9
T2 construct: purified commercial enzyme from BPS Bioscience
T2 sequence (Q9UKV0 604-1011 limits assumed): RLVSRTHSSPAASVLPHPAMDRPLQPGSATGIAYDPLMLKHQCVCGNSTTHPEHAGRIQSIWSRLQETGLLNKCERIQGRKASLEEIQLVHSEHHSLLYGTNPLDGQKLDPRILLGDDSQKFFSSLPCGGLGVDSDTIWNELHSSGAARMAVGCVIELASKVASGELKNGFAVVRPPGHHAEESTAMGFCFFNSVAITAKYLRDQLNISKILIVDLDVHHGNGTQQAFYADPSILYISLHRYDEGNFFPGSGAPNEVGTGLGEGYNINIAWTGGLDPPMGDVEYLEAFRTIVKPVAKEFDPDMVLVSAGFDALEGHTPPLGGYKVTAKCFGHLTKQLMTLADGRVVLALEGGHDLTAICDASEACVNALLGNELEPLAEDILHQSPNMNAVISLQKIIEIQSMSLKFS
Source text: microfluidic mobility shift (LabChip), FAM-acetylated peptide substrate on HDAC9

HDAC5 = biological target: T3, HDAC5 (Homo sapiens, UniProt Q9UQL6); settings: read-out: HDAC IC50 (μM) without preincubation / HDAC5
T3 construct: purified commercial enzyme from BPS Bioscience
T3 sequence (Q9UQL6 whole entry): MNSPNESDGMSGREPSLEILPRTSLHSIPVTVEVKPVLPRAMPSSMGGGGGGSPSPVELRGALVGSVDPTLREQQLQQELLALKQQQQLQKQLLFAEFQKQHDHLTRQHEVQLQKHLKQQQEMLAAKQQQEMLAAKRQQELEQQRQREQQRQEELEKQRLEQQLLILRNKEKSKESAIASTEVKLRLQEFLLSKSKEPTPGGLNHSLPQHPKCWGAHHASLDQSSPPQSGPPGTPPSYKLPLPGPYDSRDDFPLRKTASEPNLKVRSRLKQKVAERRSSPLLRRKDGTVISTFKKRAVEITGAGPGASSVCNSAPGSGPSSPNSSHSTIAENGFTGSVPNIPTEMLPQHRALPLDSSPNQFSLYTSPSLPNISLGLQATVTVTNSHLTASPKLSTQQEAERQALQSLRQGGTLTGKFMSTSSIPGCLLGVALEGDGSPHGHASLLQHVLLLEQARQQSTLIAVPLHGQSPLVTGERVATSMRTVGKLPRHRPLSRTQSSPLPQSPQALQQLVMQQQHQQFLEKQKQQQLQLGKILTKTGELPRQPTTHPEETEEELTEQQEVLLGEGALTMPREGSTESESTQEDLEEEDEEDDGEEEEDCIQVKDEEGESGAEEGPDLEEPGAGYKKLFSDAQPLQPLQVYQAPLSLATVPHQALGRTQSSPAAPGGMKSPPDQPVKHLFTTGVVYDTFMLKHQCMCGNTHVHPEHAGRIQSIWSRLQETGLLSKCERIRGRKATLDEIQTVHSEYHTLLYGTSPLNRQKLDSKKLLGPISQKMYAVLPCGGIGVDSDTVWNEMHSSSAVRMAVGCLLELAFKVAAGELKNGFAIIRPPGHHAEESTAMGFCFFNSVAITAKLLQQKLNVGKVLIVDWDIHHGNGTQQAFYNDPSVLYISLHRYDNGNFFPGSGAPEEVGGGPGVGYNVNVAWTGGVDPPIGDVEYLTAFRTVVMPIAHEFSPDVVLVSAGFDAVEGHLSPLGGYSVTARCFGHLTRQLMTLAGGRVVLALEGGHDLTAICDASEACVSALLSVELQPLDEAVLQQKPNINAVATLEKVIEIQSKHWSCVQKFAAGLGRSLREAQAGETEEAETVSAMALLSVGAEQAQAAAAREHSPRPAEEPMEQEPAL
Source text: microfluidic mobility shift (LabChip), FAM-acetylated peptide substrate on HDAC5

HDAC8 = biological target: T4, HDAC8 (Homo sapiens, UniProt Q9BY41); settings: read-out: HDAC IC50 (μM) without preincubation / HDAC4
T4 construct: purified commercial enzyme from BPS Bioscience
T4 sequence (Q9BY41 1-377): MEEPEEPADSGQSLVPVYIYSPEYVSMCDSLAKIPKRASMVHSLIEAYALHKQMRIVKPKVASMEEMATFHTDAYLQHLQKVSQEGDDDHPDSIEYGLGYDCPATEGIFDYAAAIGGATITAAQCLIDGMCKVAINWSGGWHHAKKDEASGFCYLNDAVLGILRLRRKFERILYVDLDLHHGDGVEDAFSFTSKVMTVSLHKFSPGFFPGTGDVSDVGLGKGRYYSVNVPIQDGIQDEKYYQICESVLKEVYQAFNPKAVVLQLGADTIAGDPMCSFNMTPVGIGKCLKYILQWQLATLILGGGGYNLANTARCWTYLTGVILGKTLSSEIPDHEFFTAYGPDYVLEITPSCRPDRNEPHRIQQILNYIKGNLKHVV
Source text: microfluidic mobility shift (LabChip), FAM-acetylated peptide substrate on HDAC8

HDAC3 = biological target: T5, HDAC3 (Homo sapiens, UniProt O15379); settings: without preincubation; […] min, room temperature, pH […] substrate; read-out: HDAC IC50 (μM) without preincubation / HDAC3
T5 construct: purified commercial enzyme from BPS Bioscience; with Nuclear receptor corepressor 2
Source text: microfluidic mobility shift (LabChip), FAM-acetylated peptide substrate on HDAC3

HDAC4 = biological target: T6, HDAC4 (Homo sapiens, UniProt P56524); settings: read-out: HDAC IC50 (μM) without preincubation / HDAC4
T6 construct: purified commercial enzyme from BPS Bioscience
T6 sequence (P56524 627-1084 limits assumed): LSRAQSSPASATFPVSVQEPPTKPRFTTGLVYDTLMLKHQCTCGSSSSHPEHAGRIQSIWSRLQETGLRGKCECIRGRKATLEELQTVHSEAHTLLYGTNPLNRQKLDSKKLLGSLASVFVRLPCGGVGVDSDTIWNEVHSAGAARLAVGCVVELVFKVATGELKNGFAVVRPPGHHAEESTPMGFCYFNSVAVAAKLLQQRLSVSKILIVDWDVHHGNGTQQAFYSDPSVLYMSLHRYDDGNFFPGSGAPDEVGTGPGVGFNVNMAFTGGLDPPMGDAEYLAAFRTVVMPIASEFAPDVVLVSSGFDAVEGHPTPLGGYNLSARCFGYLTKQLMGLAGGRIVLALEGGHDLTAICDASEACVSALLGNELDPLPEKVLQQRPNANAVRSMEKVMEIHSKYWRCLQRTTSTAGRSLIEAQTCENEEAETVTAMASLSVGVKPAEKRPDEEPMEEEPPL
Source text: microfluidic mobility shift (LabChip), FAM-acetylated peptide substrate on HDAC4

HDAC7 = biological target: T7, HDAC7 (Homo sapiens, UniProt Q8WUI4); settings: read-out: HDAC IC50 (μM) without preincubation / HDAC4
T7 construct: purified commercial enzyme from BPS Bioscience
T7 sequence (Q8WUI4 518-952 limits assumed): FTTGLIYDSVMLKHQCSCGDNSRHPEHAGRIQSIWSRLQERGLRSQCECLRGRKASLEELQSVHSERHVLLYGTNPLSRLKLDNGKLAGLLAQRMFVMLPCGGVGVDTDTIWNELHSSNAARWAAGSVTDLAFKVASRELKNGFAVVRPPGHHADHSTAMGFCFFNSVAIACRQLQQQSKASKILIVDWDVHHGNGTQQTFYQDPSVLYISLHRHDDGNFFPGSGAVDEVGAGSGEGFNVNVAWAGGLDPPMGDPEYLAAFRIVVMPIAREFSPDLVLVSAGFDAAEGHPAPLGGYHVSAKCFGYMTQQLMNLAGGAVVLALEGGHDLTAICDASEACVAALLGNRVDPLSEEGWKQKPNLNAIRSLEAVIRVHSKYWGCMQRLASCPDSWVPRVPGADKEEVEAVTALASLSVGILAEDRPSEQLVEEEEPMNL
Source text: microfluidic mobility shift (LabChip), FAM-acetylated peptide substrate on HDAC7

HDAC6 = biological target: T8, HDAC6 (Homo sapiens, UniProt Q9UBN7); settings: read-out: HDAC IC50 (μM) without preincubation / HDAC4
T8 construct: purified commercial enzyme from BPS Bioscience
T8 sequence (Q9UBN7 1-1215): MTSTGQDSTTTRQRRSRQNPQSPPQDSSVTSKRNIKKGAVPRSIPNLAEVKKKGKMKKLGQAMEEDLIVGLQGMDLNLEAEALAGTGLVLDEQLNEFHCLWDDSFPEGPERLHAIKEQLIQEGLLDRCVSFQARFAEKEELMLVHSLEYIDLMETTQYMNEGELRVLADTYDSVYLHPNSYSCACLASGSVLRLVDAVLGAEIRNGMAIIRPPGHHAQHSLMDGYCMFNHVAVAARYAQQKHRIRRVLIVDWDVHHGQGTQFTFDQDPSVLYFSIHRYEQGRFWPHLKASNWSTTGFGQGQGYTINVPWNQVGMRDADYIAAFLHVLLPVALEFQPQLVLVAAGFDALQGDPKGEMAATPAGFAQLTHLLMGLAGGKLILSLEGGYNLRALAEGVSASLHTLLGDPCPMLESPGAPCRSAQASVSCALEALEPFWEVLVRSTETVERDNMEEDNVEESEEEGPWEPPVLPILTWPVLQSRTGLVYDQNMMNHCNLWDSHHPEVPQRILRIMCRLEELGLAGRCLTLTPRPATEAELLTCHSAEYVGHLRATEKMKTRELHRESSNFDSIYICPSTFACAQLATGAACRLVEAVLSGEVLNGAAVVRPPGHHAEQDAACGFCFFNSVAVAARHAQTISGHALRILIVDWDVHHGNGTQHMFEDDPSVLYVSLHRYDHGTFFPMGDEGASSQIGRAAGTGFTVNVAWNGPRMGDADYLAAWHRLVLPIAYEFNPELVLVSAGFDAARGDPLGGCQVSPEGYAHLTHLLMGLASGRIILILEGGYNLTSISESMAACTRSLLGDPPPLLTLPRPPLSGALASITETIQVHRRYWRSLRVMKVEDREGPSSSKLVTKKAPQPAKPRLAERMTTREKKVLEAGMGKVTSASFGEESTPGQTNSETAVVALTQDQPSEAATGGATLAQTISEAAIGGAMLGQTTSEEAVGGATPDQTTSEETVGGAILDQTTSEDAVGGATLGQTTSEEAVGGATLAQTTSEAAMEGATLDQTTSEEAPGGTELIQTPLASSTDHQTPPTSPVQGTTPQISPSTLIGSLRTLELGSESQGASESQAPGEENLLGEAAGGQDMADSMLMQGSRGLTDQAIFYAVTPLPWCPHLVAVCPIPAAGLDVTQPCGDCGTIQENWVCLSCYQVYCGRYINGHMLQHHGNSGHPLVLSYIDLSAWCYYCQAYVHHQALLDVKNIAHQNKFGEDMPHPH
Source text: microfluidic mobility shift (LabChip), FAM-acetylated peptide substrate on HDAC6

HDAC1 = biological target: T9, HDAC1 (Homo sapiens, UniProt Q13547); settings: without preincubation; […] min, room temperature, pH […] substrate; read-out: HDAC IC50 (μM) without preincubation / HDAC1
T9 construct: purified commercial enzyme from BPS Bioscience
T9 sequence (Q13547 whole entry): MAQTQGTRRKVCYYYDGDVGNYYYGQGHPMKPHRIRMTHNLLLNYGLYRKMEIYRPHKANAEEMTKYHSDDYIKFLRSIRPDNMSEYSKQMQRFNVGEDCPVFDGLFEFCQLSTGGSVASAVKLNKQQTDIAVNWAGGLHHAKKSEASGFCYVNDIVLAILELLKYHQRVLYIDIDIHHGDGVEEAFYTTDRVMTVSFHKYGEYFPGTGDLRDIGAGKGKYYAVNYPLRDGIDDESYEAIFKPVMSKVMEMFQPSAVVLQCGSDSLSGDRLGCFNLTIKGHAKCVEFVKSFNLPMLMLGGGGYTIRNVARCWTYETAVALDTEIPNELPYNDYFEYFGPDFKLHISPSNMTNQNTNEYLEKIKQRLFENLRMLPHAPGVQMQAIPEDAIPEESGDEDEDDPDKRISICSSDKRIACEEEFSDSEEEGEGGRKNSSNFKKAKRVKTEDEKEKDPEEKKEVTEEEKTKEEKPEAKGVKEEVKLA
Source text: microfluidic mobility shift (LabChip), FAM-acetylated peptide substrate on HDAC1

IC50 (HDAC2): 1.34 µM
IC50 (HDAC9): > 33 µM
IC50 (HDAC5): > 33 µM
IC50 (HDAC8): > 33 µM
IC50 (HDAC3): 0.054 µM
IC50 (HDAC4): > 33 µM
IC50 (HDAC7): > 33 µM
IC50 (HDAC6): > 33 µM
IC50 (HDAC1): 1.26 µM
SMILES: CC(=O)Nc1ccc(C(=O)Nc2ccc(F)cc2N)cc1 [BRD3308]
